Patent US20260042764A1, “COMPOSITIONS AND METHODS FOR INHIBITION OF KRAS” (TheRas, Inc., priority 2022, published 2026)

Tests used:
[1] = molecular target: T1, Avi-KRAS G12V (1-169) GppNHp/RAF1 RBD-3xFLAG (52-151) (Homo sapiens, UniProt P01116, G12V); assay: Raf1-KRAS G12V-GppNHP disruption HTRF assay (Biological Example 1); assay type: binding
T1 construct: Avi-KRAS G12V (1-169)
In short: (§1)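 Protein mix, 1 h RT, 700 rpm; reagent mix, 1 h RT, 700 rpm; HTRF read. Buffer Tris pH 7.5/NaCl/MgCl2/BSA/Tween, 10% DMSO. Output % activity, DMSO = 100%.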

SW620 cells (KRAS G12V) = assay: Cell-based pERK HTRF assay in SW620 cell (Biological Example 4); conditions: pERK HTRF
Protocol: A pERK assay (Perkin Elmer) was used to determine the effectiveness of compounds in disrupting KRAS G12V protein/effector signaling in cells.
On Day 1, cells (SW620) were seeded into 96-well plates at 3×10^4 cells/well in 80 μL complete growth media (RPMI, 10% FBS).
On Day 2, cells were treated with compounds at 0.25% DMSO. The source plate was created with compounds diluted in media at 5-fold the final assay concentration. The compounds were run in a 9-point concentration curve starting at 1 μM, with a half-log dilution between concentrations. Twenty μL was transferred onto the cell plates (final volume in wells was 100 μL). Plates were harvested after 4 h incubation by aspirating media and adding kit-supplied 1x supplemented lysis buffer to all wells (50 μL per well). Plates were then placed on a plate shaker and incubated at 850 rpm for an additional 30 min.
Antibody mixture solution was prepared by diluting aliquoted d2 and Eu Cryptate antibodies 1:20 in kit supplied detection buffer and mixing the diluted antibodies solutions (1:1 v:v).
Samples were homogenized by pipetting up and down and then transferred (16 μL of cell lysates) from the 96-well cell culture plate to two wells of the HTRF 384-well detection plate containing the antibody solution. Plates were centrifuged (524 g for Imin) and allowed to incubate between 4 and 24 h at room temperature. […] Plates were centrifuged again (524 g for 1 min), then analyzed on the En Vision plate reader using the following settings: Excitation 320 nm, Bandwidth 75 nm; Emission 615 nm, Bandwidth 85 nm; Gain 100%; Flashes 100; Lag 60 μs.

[2] = molecular target: T2, Avi-KRAS G12R (1-169) GppNHp/RAF1 RBD-3xFLAG (52-151) (Homo sapiens, UniProt P01116, G12R); assay: Raf1-KRAS G12R-GppNHP disruption HTRF assay (Biological Example 1); assay type: binding
T2 construct: Avi-KRAS G12R (1-169)
In short: as §1

[3] = molecular target: T3, Avi-KRAS WT (1-169) GppNHp/RAF1 RBD-3xFLAG (52-151) (Homo sapiens, UniProt P01116); assay: Raf1-KRAS WT-GppNHP disruption HTRF assay (Biological Example 1); assay type: binding
T3 construct: Avi-KRAS WT (1-169)
In short: as §1

[4] = molecular target: T4, Avi-KRAS G12D (1-169) GppNHp/RAF1 RBD-3xFLAG (52-151) (Homo sapiens, UniProt P01116, G12D); assay: Raf1-KRAS G12D-GppNHP disruption HTRF assay (Biological Example 1); assay type: binding
T4 construct: Avi-KRAS G12D (1-169)
In short: as §1

GP2d cells (KRAS G12D) = assay: Cell-based pERK HTRF assay in GP2d cell (Biological Example 2); conditions: GP2d (KRAS G12D) cells, pERK HTRF
In short: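 Cells grown in DMEM with 10% FBS were exposed to compound for 60 min at 0.25% DMSO, using a 9-point half-log series starting at 1 μM or 100 nM. Lysates were then mixed with d2 and Eu cryptate antibodies for 4–24 h at room temperature, and pERK was read by HTRF.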

[5] = Homo sapiens, SW-620, SW620 (KRAS G12V) cells

T1 sequence (P01116 1-169 isoform P01116-2 G12V): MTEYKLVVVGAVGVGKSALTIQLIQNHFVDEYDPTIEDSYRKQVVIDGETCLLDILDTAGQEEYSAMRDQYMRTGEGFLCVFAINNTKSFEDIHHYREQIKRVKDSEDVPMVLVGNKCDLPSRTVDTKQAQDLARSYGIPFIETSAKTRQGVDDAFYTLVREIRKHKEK
T2 sequence (P01116 1-169 isoform P01116-2 G12R): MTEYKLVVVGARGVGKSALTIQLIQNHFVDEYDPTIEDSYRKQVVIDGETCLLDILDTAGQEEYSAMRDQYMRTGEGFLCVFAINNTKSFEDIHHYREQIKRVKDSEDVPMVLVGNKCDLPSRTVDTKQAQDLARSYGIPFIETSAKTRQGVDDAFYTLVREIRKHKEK
T3 sequence (P01116 1-169 isoform P01116-2): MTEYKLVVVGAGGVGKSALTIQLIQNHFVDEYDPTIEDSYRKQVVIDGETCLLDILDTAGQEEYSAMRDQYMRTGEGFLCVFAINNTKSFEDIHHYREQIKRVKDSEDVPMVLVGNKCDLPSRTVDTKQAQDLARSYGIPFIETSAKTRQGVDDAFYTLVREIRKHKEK
T4 sequence (P01116 1-169 isoform P01116-2 G12D): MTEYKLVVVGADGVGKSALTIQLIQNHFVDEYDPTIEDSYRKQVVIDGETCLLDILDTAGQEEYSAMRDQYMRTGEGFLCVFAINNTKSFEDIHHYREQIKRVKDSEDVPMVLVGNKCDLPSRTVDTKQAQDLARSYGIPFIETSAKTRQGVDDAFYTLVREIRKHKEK

| SMILES | IC50 ([1]; KRAS G12V, GppNHp-loaded, Table 11) [µM] | IC50 (SW620 cells (KRAS G12V); SW620 (KRAS G12V) cells) [µM] | IC50 ([2]; KRAS G12R, GppNHp-loaded, Table 11) [µM] | IC50 ([3]; KRAS WT, GppNHp-loaded, Table 11) [µM] | IC50 ([4]; KRAS G12D, GppNHp-loaded, Table 11) [µM] | IC50 (GP2d cells (KRAS G12D)) [µM] | IC50 ([1]; KRAS G12V-GppNHp/RAF1 RBD HTRF) [µM] | IC50 ([2]; KRAS G12R-GppNHp/RAF1 RBD HTRF) [µM] | IC50 ([3]; KRAS WT-GppNHp/RAF1 RBD HTRF) [µM] | IC50 ([4]; KRAS G12D-GppNHp/RAF1 RBD HTRF) [µM] | IC50 (SW620 cells (KRAS G12V); [5]) [µM] | IC50 (GP2d cells (KRAS G12D); GP2d) [µM] |
| --- | --- | --- | --- | --- | --- | --- | --- | --- | --- | --- | --- | --- |
| CN(c1nc(OC[C@@]23CCCN2C[C@H](F)C3)nc2c(F)c(-c3ccc(F)c4sc(N)c(C#N)c34)c(C(F)(F)F)cc12)[C@]1(CC#N)C[C@@H](O)C1 (atropisomer, axis not shown) [Compound 254] | 1 to 10 | > 1 | 1 to 10 | 0.1 to 1 | 0.1 to 1 | 0.1 to 1 | – | – | – | – | – | – |
| C[C@@H]1[C@H](N(C)c2nc(OC[C@@]34CCCN3C[C@H](F)C4)nc3c(F)c(-c4ccc(F)c5sc(N)c(C#N)c45)c(C(F)(F)F)cc23)CCN1C(=O)C1CC1 (atropisomer, axis not shown) [Compound 334] | – | 0.1 to 1 | – | – | – | 0.1 to 1 | > 10 | > 10 | > 10 | > 10 | – | – |
| CCC(=O)N1CC[C@@H](N(C)c2nc(OC[C@]34CCCN3C[C@H](F)C4)nc3c(F)c(-c4ccc(F)c5sc(N)c(C#N)c45)c(C(F)(F)F)cc23)[C@H]1C (atropisomer, axis not shown) [Compound 336] | – | – | – | – | – | – | > 10 | > 10 | 1 to 10 | 1 to 10 | 0.1 to 1 | 0.1 to 1 |
| CCN(c1nc(OC[C@@]23CCCN2C[C@H](F)C3)nc2c(F)c(-c3ccc(F)c4sc(N)c(C#N)c34)c(C(F)(F)F)cc12)[C@H]1CCS(=O)(=O)C1 (atropisomer, axis not shown) [Compound 491] | – | 0.1 to 1 | – | – | – | 0.1 to 1 | > 10 | > 10 | 1 to 10 | 1 to 10 | – | – |
| CCN(c1nc(OC[C@@]23CCCN2C[C@H](F)C3)nc2c(F)c(-c3ccc(F)c4sc(N)c(C#N)c34)c(C(F)(F)F)cc12)[C@H]1C[C@H](C)N(C(=O)N(C)C)C1 (atropisomer, axis not shown) [Compound 521] | – | – | – | – | – | – | < 0.1 | < 0.1 | 0.1 to 1 | < 0.1 | < 0.1 | < 0.1 |
| CCN(c1nc(OC[C@@]23CCCN2C[C@H](F)C3)nc2c(F)c(-c3ccc(F)c4sc(N)c(C#N)c34)c(C(F)(F)F)cc12)[C@@H]1C[C@@H](C)N(C(=O)N(C)C)C1 (atropisomer, axis not shown) [Compound 525] | – | – | – | – | – | – | 1 to 10 | 1 to 10 | 0.1 to 1 | 1 to 10 | < 0.1 | < 0.1 |
| CCN(c1nc(OC[C@@]23CCCN2C[C@H](F)C3)nc2c(F)c(-c3ccc(F)c4sc(N)c(C#N)c34)c(C(F)(F)F)cc12)[C@@H]1C[C@@H](C)N(C(=O)OC)C1 (atropisomer, axis not shown) [Compound 526] | – | – | – | – | – | – | 0.1 to 1 | 0.1 to 1 | 0.1 to 1 | 0.1 to 1 | < 0.1 | < 0.1 |
| C[C@@H]1Cn2nncc2CN1c1nc(OC[C@@]23CCCN2C[C@H](F)C3)nc2c(F)c(-c3ccc(F)c4sc(N)c(C#N)c34)c(C(F)(F)F)cc12 (atropisomer, axis not shown) [Compound 530] | – | – | – | – | – | – | 0.1 to 1 | 0.1 to 1 | 0.1 to 1 | 0.1 to 1 | < 0.1 | < 0.1 |
| CCN(c1nc(OC[C@@]23CCCN2C[C@H](F)C3)nc2c(F)c(-c3ccc(F)c4sc(N)c(C#N)c34)c(C(F)(F)F)cc12)[C@@H]1C[C@H](C)N(C(=O)OC)C1 (atropisomer, axis not shown) [Compound 544] | – | – | – | – | – | – | 0.1 to 1 | 0.1 to 1 | 0.1 to 1 | 0.1 to 1 | < 0.1 | < 0.1 |
| CCN(c1nc(OC[C@@]23CCCN2C[C@H](F)C3)nc2c(F)c(-c3ccc(F)c4sc(N)c(C#N)c34)c(C(F)(F)F)cc12)[C@@H]1C[C@H](C)N(C(=O)N(C)C)C1 (atropisomer, axis not shown) [Compound 545] | – | – | – | – | – | – | 1 to 10 | 1 to 10 | 0.1 to 1 | 0.1 to 1 | < 0.1 | < 0.1 |
| CCN(c1nc(OC[C@@]23CCCN2C[C@H](F)C3)nc2c(F)c(-c3ccc(F)c4sc(N)c(C#N)c34)c(C(F)(F)F)cc12)[C@H]1CCN(C(=O)CC#N)C1 (atropisomer, axis not shown) [Compound 546] | – | – | – | – | – | – | < 0.1 | < 0.1 | < 0.1 | < 0.1 | < 0.1 | < 0.1 |
| CCN(c1nc(OC[C@@]23CCCN2C[C@H](F)C3)nc2c(F)c(-c3ccc(F)c4sc(N)c(C#N)c34)c(C(F)(F)F)cc12)[C@H]1CCN(C(=O)C(F)F)C1 (atropisomer, axis not shown) [Compound 547] | – | – | – | – | – | – | < 0.1 | < 0.1 | < 0.1 | < 0.1 | < 0.1 | < 0.1 |
| CCN(c1nc(OC[C@@]23CCCN2C[C@H](F)C3)nc2c(F)c(-c3ccc(F)c4sc(N)c(C#N)c34)c(C(F)(F)F)cc12)[C@H]1CCN(C(=O)C2CC(F)(F)C2)C1 (atropisomer, axis not shown) [Compound 550] | – | – | – | – | – | – | 0.1 to 1 | < 0.1 | < 0.1 | < 0.1 | < 0.1 | < 0.1 |
| CCN(c1nc(OC[C@@]23CCCN2C[C@H](F)C3)nc2c(F)c(-c3ccc(F)c4sc(N)c(C#N)c34)c(C(F)(F)F)cc12)[C@H]1CCN(C(=O)C2CCC2)C1 (atropisomer, axis not shown) [Compound 551] | – | – | – | – | – | – | < 0.1 | < 0.1 | < 0.1 | < 0.1 | < 0.1 | < 0.1 |
| CCN(c1nc(OC[C@@]23CCCN2C[C@H](F)C3)nc2c(F)c(-c3ccc(F)c4sc(N)c(C#N)c34)c(C(F)(F)F)cc12)[C@H]1CCN(C(=O)c2ccno2)C1 (atropisomer, axis not shown) [Compound 552] | – | – | – | – | – | – | < 0.1 | < 0.1 | < 0.1 | < 0.1 | < 0.1 | < 0.1 |
| CCN(c1nc(OC[C@@]23CCCN2C[C@H](F)C3)nc2c(F)c(-c3ccc(F)c4sc(N)c(C#N)c34)c(C(F)(F)F)cc12)[C@@H]1CCN(C(C)=O)[C@@H]1C [Compound 407] | – | – | – | – | – | – | 0.1 to 1 | 0.1 to 1 | 0.1 to 1 | 0.1 to 1 | < 0.1 | – |
